From patent US9474780B2, “GIP and GLP-1 co-agonist compounds” (Eli Lilly and Company, priority 2015, dated 2016)

What was measured:
[1] = molecular target: T1, human GIP-R (Homo sapiens, UniProt P48546); assay: Functional hGIP-R cAMP assay in HEK-293 clonal cells; settings: HEK293, read-out: Human GIP-R Emax
T1 sequence (P48546 22-466): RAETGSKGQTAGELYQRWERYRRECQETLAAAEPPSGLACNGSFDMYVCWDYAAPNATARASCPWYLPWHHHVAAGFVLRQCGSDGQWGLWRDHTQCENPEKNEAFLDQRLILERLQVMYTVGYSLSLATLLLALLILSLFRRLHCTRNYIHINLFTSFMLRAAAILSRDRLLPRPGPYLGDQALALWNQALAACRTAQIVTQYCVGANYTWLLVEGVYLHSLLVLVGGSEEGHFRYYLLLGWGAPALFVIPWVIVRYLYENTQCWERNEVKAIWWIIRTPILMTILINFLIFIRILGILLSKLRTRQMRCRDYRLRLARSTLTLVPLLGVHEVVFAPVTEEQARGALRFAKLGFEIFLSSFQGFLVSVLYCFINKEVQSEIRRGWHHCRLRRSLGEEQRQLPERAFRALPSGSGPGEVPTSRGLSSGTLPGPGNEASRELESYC
Protocol: After an incubation of 60 minutes at room temperature, the resulting increase in intracellular cAMP is quantitatively determined using the CisBio cAMP Dynamic 2 HTRF Assay Kit (Bedford, Mass.). Briefly, cAMP levels within the cell are detected by adding the cAMP-d2 conjugate in cell lysis buffer (20 μl) followed by the antibody anti-cAMP-Eu^3+-Cryptate, also in cell lysis buffer (20 μl). The resulting competitive assay is incubated for at least 60 minutes at room temperature, then detected using a PerkinElmer Envision® instrument with excitation at 320 nm and emission at 665 nm and 620 nm Envision units (emission at 665 nm/620 nm*10,000) are inversely proportional to the amount of cAMP present and are converted to nM cAMP per well using a cAMP standard curve. […] A relative EC50 value and percent top (Emax) is derived by non-linear regression analysis using the percent maximal response versus the concentration of the compound of the present invention, fitted to a four-parameter logistic equation.

[2] = molecular target: Human GCGR (Homo sapiens, UniProt P47871); assay: Functional hGCGR cAMP assay in HEK-293 clonal cells
[3] = Pharmacokinetics in cynomolgus monkeys; format: in vivo; settings: cynomolgus monkey, plasma
Protocol: The compounds are administered by a single intravenous or subcutaneous dose (0.2 mg/kg) in 20 mM citrate buffer (pH 7.0) at a volume of 0.21 ml/kg. Blood is collected from each animal at 2, 4, 8, 12, 24, 48, 72, 96, 120, 144, 168, 204, 240, and 312 hours post-dosage. The plasma concentrations of compounds of the present invention are determined by a LC/MS method. Briefly, a compound of the present invention is extracted from 100% Monkey plasma sample (50 μl) diluted with 1×PBS (150 μl) and mixed with N-butanol (400 μl). Three distinct liquid layers are formed with the compound located in the top layer. A volume of 200 μl is transferred to a v-bottom 96-well plate, dried down using heated Nitrogen gas and reconstituted with 100 μl of 30% acetonitrile/0.1% formic acid. 20 μl of the reconstituted sample is injected onto a Supelco Analytical Discovery bio wide C5 3 μm column. The column effluent is directed into a Thermo Q-Exactive mass spectrometer for detection and quantitation.

[4] = molecular target: T2, human GLP-1R (Homo sapiens, UniProt P43220); assay: Functional hGLP-1R cAMP assay in HEK-293 clonal cells; format: cell-based; settings: HEK293; percent of maximal response of hGLP-1(7-36)NH2
T2 construct: expressed in transfected cells; host or cells: 293HEK, Hygromycin-selected; crude plasma membranes

[5] = Plasma corticosterone in Sprague Dawley rats; format: in vivo, rat; settings: for Corticosterone, Mean: 16 hours
Protocol: Plasma corticosterone levels are evaluated using Sprague Dawley Rats (Harlan, Indianapolis), weighing approximately 220 g and acclimated for at least 72 hours before handling. The rats are then dosed with vehicle (20 mM citrate buffer, pH 7), semaglutide (10 nmol/kg), or compounds of the present invention at 3, 10 or 30 nmol/kg s.c. with 8 rats per dose group. The rats are decapitated 16 hours later. Blood is collected into EDTA tubes on ice, then centrifuged 5 minutes at 8000 RPM in a Eppendorf 5402 tabletop centrifuge. Plasma is stored at −80° C. until analysis.
For corticosterone analysis, corticosterone standards (Sigma, 27840) are prepared by serial dilutions in HPLC-grade methanol, H2O and the addition of 5% charcoal stripped rat serum (Bioreclamation, RATSRM-STRPD-HEV). Rat plasma samples are diluted with PBS, precipitated with cold methanol, incubated for 20 minutes at −20° C., and then centrifuged at 14,000 RPM with an Eppendorf 5417R at 4° C. Supernatants are extracted, evaporated under a stream of N2 gas, and reconstituted in MeOH/H2O (1:1) solution.

[6] = tested on: mouse islets; assay: Mouse islet insulin secretion; format: cell-based; settings: read-out: Mouse islet insulin secretion Mean ED50
Protocol: To assess action of compounds of the present invention in a system representing physiological GLP-1R and GIP-R expression levels insulin secretion, compounds are tested for effects on insulin secretion from wild-type rodent islets.
After common bile duct cannulation in male C57B1/6 mice (22-26 g) or male Sprague-Dawley rats (approx. 250 g), the pancreas is distended with Hank's buffer (3 ml for mice or 10 ml for rats, containing 2% BSA and 0.75 mg/ml Clzyme collagenase (VitaCyte). Subsequently, tissues are digested in Hank's buffer at 37° C. for 11-13 minutes (mice) or 14-16 minutes for rat pancreata. Purified islets (Histopaque-1100 gradient [Sigma-Aldrich], […] at 750× gravity) are cultured overnight in RPMI-1640 medium (Invitrogen) containing 10% FBS, 100 U/ml penicillin and 100 μg/ml streptomycin, and preconditioned by starvation in Earle's Balanced Salt Solution (EBSS) supplemented with 0.1% BSA and 2.8 mM glucose. Subsequently, islets are incubated in EBSS (Invitrogen) supplemented with 0.1% BSA, 2.8-11.2 mM glucose and increasing levels of compound (6 batches of 4 islets/condition). GLP-1(7-36)amide (30 nM) is used as a positive control. Insulin is measured over 90 minutes in supernatant using the MSD Insulin Assay (Meso Scale, Gaithersburg, Md.).

T2 sequence (P43220 24-463): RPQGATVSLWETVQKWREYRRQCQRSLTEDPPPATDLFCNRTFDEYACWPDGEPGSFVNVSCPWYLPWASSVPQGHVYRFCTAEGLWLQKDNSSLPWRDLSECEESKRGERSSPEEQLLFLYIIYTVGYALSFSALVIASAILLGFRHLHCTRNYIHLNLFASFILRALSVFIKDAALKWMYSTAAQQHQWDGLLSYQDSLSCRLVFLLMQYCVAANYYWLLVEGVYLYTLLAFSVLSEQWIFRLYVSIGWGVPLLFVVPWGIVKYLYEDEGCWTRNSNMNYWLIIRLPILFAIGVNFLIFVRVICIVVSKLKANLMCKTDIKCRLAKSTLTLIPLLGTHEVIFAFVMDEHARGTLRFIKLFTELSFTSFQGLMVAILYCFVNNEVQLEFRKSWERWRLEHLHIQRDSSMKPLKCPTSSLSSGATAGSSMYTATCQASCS
Chain of Human GCGR (P47871 26-477): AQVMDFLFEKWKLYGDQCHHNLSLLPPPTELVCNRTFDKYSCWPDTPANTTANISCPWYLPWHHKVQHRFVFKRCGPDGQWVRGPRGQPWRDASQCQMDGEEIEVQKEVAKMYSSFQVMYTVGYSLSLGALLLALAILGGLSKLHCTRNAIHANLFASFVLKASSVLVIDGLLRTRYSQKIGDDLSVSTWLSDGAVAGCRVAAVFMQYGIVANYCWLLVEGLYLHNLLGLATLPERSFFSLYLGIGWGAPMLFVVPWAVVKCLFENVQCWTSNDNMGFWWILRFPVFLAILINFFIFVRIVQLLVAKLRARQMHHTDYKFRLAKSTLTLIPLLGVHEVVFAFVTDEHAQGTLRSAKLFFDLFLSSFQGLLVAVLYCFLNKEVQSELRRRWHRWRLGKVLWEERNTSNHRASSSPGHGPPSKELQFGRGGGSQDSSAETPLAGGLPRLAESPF

| SMILES | Emax [1] | EC50 [2] | Tmax ([3]; sc, single subcutaneous dose 0.2 mg/kg, read-out: time of mean maximum plasma concentration) | clearance ([3]; 0.2 mg/kg single dose) | half-life ([3]; 0.2 mg/kg single dose, read-out: mean half-life (converted)) | bioavailability ([3]; subcutaneous vs intravenous, 0.2 mg/kg) | Emax [4] | Corticosterone, Mean ([5]; 3 nmol/kg s.c.) | Corticosterone, Mean ([5]; 10 nmol/kg s.c.) | Corticosterone, Mean ([5]; 30 nmol/kg s.c.) | increase in plasma corticosterone levels over control ([5]; Example 1 at 3, 10, 30 nmol/kg, semaglutide 10 nmol/kg) | EC50 [6] |
| --- | --- | --- | --- | --- | --- | --- | --- | --- | --- | --- | --- | --- |
| CC[C@H](C)[C@H](NC(=O)[C@H](CC(C)C)NC(=O)[C@H](Cc1c[nH]c2ccccc12)NC(=O)[C@H](CCC(N)=O)NC(=O)[C@@H](NC(=O)[C@H](Cc1ccccc1)NC(=O)[C@H](C)NC(=O)[C@H](CCCCNC(=O)COCCOCCNC(=O)COCCOCCNC(=O)CC[C@H](NC(=O)CCCCCCCCCCCCCCCCCCC(=O)O)C(=O)O)NC(=O)[C@H](CCC(N)=O)NC(=O)[C@H](C)NC(=O)[C@@H](NC(=O)[C@H](CCCCN)NC(=O)[C@H](CC(=O)O)NC(=O)[C@H](CC(C)C)NC(=O)C(C)(C)NC(=O)[C@@H](NC(=O)[C@H](CO)NC(=O)[C@H](Cc1ccc(O)cc1)NC(=O)[C@H](CC(=O)O)NC(=O)[C@H](CO)NC(=O)[C@@H](NC(=O)[C@H](Cc1ccccc1)NC(=O)[C@@H](NC(=O)CNC(=O)[C@H](CCC(=O)O)NC(=O)C(C)(C)NC(=O)[C@@H](N)Cc1ccc(O)cc1)[C@@H](C)O)[C@@H](C)O)[C@@H](C)CC)[C@@H](C)CC)C(C)C)C(=O)N[C@@H](C)C(=O)NCC(=O)NCC(=O)N1CCC[C@H]1C(=O)N[C@@H](CO)C(=O)N[C@@H](CO)C(=O)NCC(=O)N[C@@H](C)C(=O)N1CCC[C@H]1C(=O)N1CCC[C@H]1C(=O)N1CCC[C@H]1C(=O)N[C@@H](CO)C(N)=O [Example 1] | 97.9 ± 3% | > 1000 nM | ~8 h | 17.5 mL/day/kg | 2.29 days | ~83% | 85.2 ± 4.4% | 52.21 ng/mL | 32.46 ng/mL | 31.35 ng/mL | no increase in plasma corticosterone levels | – |
| CC[C@H](C)[C@H](NC(=O)[C@H](CC(C)C)NC(=O)[C@H](Cc1c[nH]c2ccccc12)NC(=O)[C@H](CCC(N)=O)NC(=O)[C@@H](NC(=O)[C@H](Cc1ccccc1)NC(=O)[C@H](C)NC(=O)[C@H](CCCCNC(=O)COCCOCCNC(=O)COCCOCCNC(=O)CC[C@H](NC(=O)CC[C@H](NC(=O)CCCCCCCCCCCCCCCCC(=O)O)C(=O)O)C(=O)O)NC(=O)[C@H](CCC(N)=O)NC(=O)[C@H](C)NC(=O)[C@@H](NC(=O)[C@H](CCCCN)NC(=O)[C@H](CC(=O)O)NC(=O)[C@H](CC(C)C)NC(=O)C(C)(C)NC(=O)[C@@H](NC(=O)[C@H](CO)NC(=O)[C@H](Cc1ccc(O)cc1)NC(=O)[C@H](CC(=O)O)NC(=O)[C@H](CO)NC(=O)[C@@H](NC(=O)[C@H](Cc1ccccc1)NC(=O)[C@@H](NC(=O)CNC(=O)[C@H](CCC(=O)O)NC(=O)C(C)(C)NC(=O)[C@@H](N)Cc1ccc(O)cc1)[C@@H](C)O)[C@@H](C)O)[C@@H](C)CC)[C@@H](C)CC)C(C)C)C(=O)N[C@@H](C)C(=O)NCC(=O)NCC(=O)N1CCC[C@H]1C(=O)N[C@@H](CO)C(=O)N[C@@H](CO)C(=O)NCC(=O)N[C@@H](C)C(=O)N1CCC[C@H]1C(=O)N1CCC[C@H]1C(=O)N1CCC[C@H]1C(=O)N[C@@H](CO)C(N)=O [Example 4] | – | > 1000 nM | – | – | – | – | 100 ± 5% | – | – | – | – | 3.5 nM |
